Measurements from paper PMC12067444, “Synthesis and Pharmacological Characterization of Novel Peripheral Cannabinoid-1 Receptor Blockers Based on a Tricyclic Scaffold” (Journal of Medicinal Chemistry, 2025).
pKi: −log10 of the molar value.

Assays:
TA98 = assay: Mini-Ames assay, strain TA98; assay type: cell-based; conditions: Salmonella typhimurium
Experimental: (§1) Mini Am es assay. To conduct the assay, top agar was melted with a microwave and maintained at a temper atur e ≥47 °C in a water bath. T he assay was performed using a heat block set to 45 °C ± 2 °C. 12 × 75 mm test tubes were prepared in duplicates. For each concentration, the following components were added sequentially to a test tube:
(§2) […] The mixture was vortexed and then dispensed into w ells using a dispo sable pipette. The plates wer e then incubated at 37±2 °C for approximately 48 to 72 hours.
(§3) BBbbbb BBBBbbbb BBBB = AAAAbbbbbbAAbb nnnnnnbbbbbb bboo bbbbAAbbbbbbbbnnbbbb oobbbb bbbb eeee dd bbbbbb AAbbbbnn gg AAAAbbbbbbAAbb nnnnnnbbbbbb bbBB bbbbAAbbbbbbbbnnbbbb BBbbbb DDDDDDDD nn bbAAbbbbaaAAbb AAbbbbnnaa The mutagenicity of the compound was determined by evaluating the number of revertant colonies in strains TA98 and TA100. A compound was […]
(§4) related and if the fold increase in revertants (F) was equal to or greater than 2 for […]
(§5) background lawn growth on the agar plates. A scoring system ranging from 0 to 4 […]
growth, respectively. A score of 4 signified full '100%' growth. […]
(§6) background lawn and required magnification for visualization. […]

TA100 = assay: Mini-Ames assay, strain TA100; assay type: cell-based
Experimental: as §1, §2, §3, §4, §5
complete cytotoxicity, while scores 1, 2, and 3 represented 25%, 50%, and 75% growth, respectively. A score of 4 signified full '100%' growth. The background […]
as §6

mouse CB1R = target: T1, mouse CB1R (Mus musculus, UniProt P47746); assay: Radioligand competition displacement binding, [3H]CP-55,940, mouse brain membranes; conditions: [3H]CP-55,940 displacement, mouse brain membranes; read-out: CB1R mKi
T1 construct: crude membranes from mouse brain; from tissue; host or cells: mouse brain cortex (without cerebellum) membranes, C57Bl/6Jhsd mice
Experimental: (§7) BNS compounds’ binding to CB1R and CB2R was assessed in competition displacement assays using [^3H]CP-55,940 as the radioligand and crude membranes from mouse brain or human cells overexpressing the CB1R or CB2R. All data were in triplicates with Ki values determined from three independent experiments. See SI for a detailed procedure.
Supplementary Experimental Methods
Brain membrane preparation for CB1R b i nd i ng . The mouse cortex, excluding the cerebellum, was dissected from 6-week-old C57Bl/6Jhsd mice (Harlan, Israel). The tissue was homogenized in 4 mL Buffer 1 (320 mM sucrose, 2 mM EDTA, 5 m M MgCl 2) using a glass-Teflon homogenizer and Hei-T ORQUE 200 (Heidolph; Cat# 17-012- 002- 25 -1) homogenizer set to 132 rpm. After homogenization, the mixture was centrifuged at 1,600 × g for 10 min at four °C, and the resulting supernatant was kept on ice. The pellet (P1) was discarded, and the remaining supernatant was subje cted to additional rounds of resuspension in 4 mL Buffer 1 followed by centrifugations, repeating this process three times. The pellets obtained from these centrifugations were discarded, and the three supernatant fractions were combined and subjected to higher-speed centrifugation at 39,000 × g for 15 min at f ou r °C. […] This resuspended pellet ( P 2 ) was incubated at 37 °C for 10 min and then centrifuged at 23, 000 × g for 10 min at 4°C.
After centrifugation, the pellet (P2) was resuspended in 5 mL Buffer 2 and further incubated at 30 °C for 40 min. Following this incubation, the suspension was centrifuged at 11,000 × g for 15 min at 4 °C. The pellet (P2) was resuspended in 2 mL Buffer 3 containing 50 mM TRIS HCl pH 7.4, 1 mM EDTA, and 3 mM MgCl 2. T h e protein concentration of the final suspension was determined using the BCA assay.
Subsequently, the suspension was diluted to a final concentration of 2 mg/mL in Buffer 3, aliquoted on ice, and stored at - 80 °C for further use.
(§8) CB1R and CB2R binding. Binding to the CB1R/CB2R was asse ss ed using competition displacement as says with [ 3H] CP -55,940 as the radioligand. Purified membranes from the mouse brain were utilized for CB1R assessment (as described above). Purified […]
membranes from cells overexpressing human CB2R ( Char les River CAT # A618) w e r e employed for CB2R evaluation.
For mouse CB1R binding assays, the novel compounds were dissolved in dimethyl sulfoxide (DMSO) to reach a final concentration of 10 mM. Each compound was then diluted in Buffer 3 (as described above) supplemented with 0.14% BSA, resulting in concentrations ranging from 10^-4 M to 10^-10 M. Triplicates of 100 µL of each concentration were dispensed into siliconized glass tubes. At the same time, 100 µL of Buffer 3 with 0.14% BSA was dispensed into three tubes as blanks. CB1R b r a i n membranes (20 µg) were added to each tube and diluted with 800 µL Buffer 3 with 0.14% BSA. Subsequently, 5 nM of [ 3H] CP -55,940 (100 µL) was added to each tube.
The tubes were sealed with parafilm and incubated with shaking (120 rpm) in a water bath at 30 °C for 1 hour. Following incubation, 2 mL of cold Buffer 4 (50 mM TRIS HCl pH 7.4, 1 mg/mL BSA) was added to each tube.
To harvest the content of each tube, a Brandel M-24R Vacuum Harvester was employed, with a wet WHATMAN GF/B filter paper (Fired) (one membrane for 12 tubes) placed in the harvester after being washed twice with Buffer 4. The filter membrane in the harvester absorbed the full content of each tube. Then, the filter membrane was wash ed six times with Buffer 4. Each filter -glass membrane tube wa s excised and transferred to a 20 mL glass tube co ntaining a 5 mL ULTIMA GOLD scintillation cocktail. […]

human CB2R = target: T2, human CB2R (Homo sapiens, UniProt P34972); assay: Radioligand competition displacement binding, [3H]CP-55,940, membranes with human CB2R; conditions: [3H]CP-55,940 displacement, read-out: CB2R hKi
T2 construct: purchased PerkinElmer; Charles River RBXCB2M400UA; A618
Experimental: as §7
Supplementary Experimental Methods […]
as §8
membranes from cells overexpressing human CB2R ( Char les River CAT # A618) w e r e employed for CB2R evaluation. […]
Radioligand binding assays were performed to asse ss the binding affinity of the different compounds to hCB1R (RBHCB1M4 00UA; Per kinElmer) or hCB 2R
(RBXCB2 M400UA; PerkinElmer). Competition displacement as says w ere employed, […]
utilizing [3H] C P -55,940 as the radioligand and crude membranes from humans for CB1 R or CB2 R. T he compounds were tested at various concentrations (eight points with a five-fold serial dilution starting at two m M) , and their ability to displace [3H] CP - 55, 940 was evaluated. Upon completion of the binding assays, the reaction mixture was filtered through GF/C plates, followed by four washes with cold wash buffer. After drying for one hour, 50 μL of Perkin Elmer Microscint 20 cocktail was added to the filter plate wells, and the bound [3H] C P -55,940 radioligand was measured using a β counter. All data points were duplicated, and Ki values were determined from two independent experiments using GraphPad Prism 7.02 analysis software, extracted through nonlinear regression analysis. […]
MgCl 2. The tissue was homogenized using a glass -Teflon and Hei-T ORQUE 200 homogenizer (Heidolph; Cat#17- 012- 002- 25 -1) set to 132 rpm. The resulting suspen sion underwent centrifugation at 48,000 × g for 20 min at four °C, and the supernatant was discarded. The pellet obtained was homogenized again and subjected to a second centrifugation under the same conditions. Subsequently, the resulting pellet […]
mM EGTA, 9 mM MgCl 2, and 150 mM NaCl, followed by homogenization. The protein concentration of the suspension was determined using the BCA assay, and the suspen sion was diluted to a final concentration of 2 mg/mL in assay buffer. The prepared suspension was aliquoted on ice and stored at - 80 °C for further use.

P-gp (MDR1) = P-gp (MDR1) (Homo sapiens, UniProt P08183); assay: Bidirectional permeability in MDR1-MDCKII cells with and without GF120918; conditions: dog
Experimental: (§9) MDR1-MDCKII cells were seeded onto […] (PET) in a 96-well insert system. Test and reference compounds were administered to the apical (A-to-B) and basolateral (B-to-A) sides of the cell monolayer. Permeation of the compounds in both directions was assessed, with and without a P-glycoprotein (P-gp) inhibitor (GF120918). […] After a 2.5-h incubation period, each compound’s permeability and efflux ratio were calculated as described in the SI. […]
(§10) Bidirectional permeability assessment in MDR1-MDCK cells. Test and reference compounds were quantified using LC -MS/MS ana lysis based on th e peak ar ea r atio of analyte to internal standard (IS). T he apparent permeability coefficient (Papp) in cm/s was computed using the equation: Pa pp = (dCr/d t ) × V r / ( A × C 0), where dCr/ d t […]
(§11) represents the cumulative concentration of the compound in the receiver chamber over time (µM/s), Vr is the solution volume in the receiver chamber (0.075 mL on the apical side, 0.25 mL on the basolateral side), A is the surface area for transport (0.0804 cm2 f or the monolayer ar ea), and C0 is the initial concentration in the donor chamber ( µM) .
(§12) The efflux ratio was determined using the equation Efflux Ratio = P a pp ( B:
(§13) A ) / Pa pp (A: B) . […]
(§14) Additionally, the percent of lucifer yellow in the basolateral well was calculated using the equation:
(§15) Lucif er yellow = VV bbbbbbbbbbbbbbbbbbbb ×RR FFFF bbbbbbbbbbbbbbbbbbbb ×100 VV bbaaaaaa bbbb ×RRRRRR bbaaaaaa bbbb+VV bbbbbbbbbbbbbbbbbbbb ×RRFFFF bbbbbbbbbbbbbbbbbbbb wher e RFUApical and RFUBasolateral demote the r elative f luor escence unit values of lucif er yellow in the apical and basolateral wells, respectively, and VApical and VBasolateral represent the volumes of apical and basolateral wells (0.075 mL and 0.25 mL, r espectively) . T he % Lucif er Yellow should be less than 2, indicating minimal leakage. […]

P-gp (MDR1-MDCKII cells) = P-gp (MDR1-MDCKII cells) (Homo sapiens, UniProt P08183); assay: as above
Experimental: as §9, §10, §11, §12, §13, §14, §15

[1] = Salmonella typhimurium, 2 μg/well

T1 sequence (P47746 whole entry): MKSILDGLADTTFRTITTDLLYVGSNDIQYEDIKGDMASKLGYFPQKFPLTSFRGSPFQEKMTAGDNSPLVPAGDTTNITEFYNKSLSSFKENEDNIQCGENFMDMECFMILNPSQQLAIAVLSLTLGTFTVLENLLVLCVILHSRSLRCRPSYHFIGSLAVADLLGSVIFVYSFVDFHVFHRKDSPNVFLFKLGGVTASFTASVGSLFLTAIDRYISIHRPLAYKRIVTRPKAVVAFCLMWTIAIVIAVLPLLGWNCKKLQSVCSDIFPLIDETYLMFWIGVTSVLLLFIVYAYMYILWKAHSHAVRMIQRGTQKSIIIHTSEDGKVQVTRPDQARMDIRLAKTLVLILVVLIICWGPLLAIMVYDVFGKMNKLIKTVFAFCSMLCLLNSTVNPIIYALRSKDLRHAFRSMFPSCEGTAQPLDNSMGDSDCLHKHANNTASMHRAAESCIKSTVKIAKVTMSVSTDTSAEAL
Chain of P-gp (MDR1) (P08183 whole entry): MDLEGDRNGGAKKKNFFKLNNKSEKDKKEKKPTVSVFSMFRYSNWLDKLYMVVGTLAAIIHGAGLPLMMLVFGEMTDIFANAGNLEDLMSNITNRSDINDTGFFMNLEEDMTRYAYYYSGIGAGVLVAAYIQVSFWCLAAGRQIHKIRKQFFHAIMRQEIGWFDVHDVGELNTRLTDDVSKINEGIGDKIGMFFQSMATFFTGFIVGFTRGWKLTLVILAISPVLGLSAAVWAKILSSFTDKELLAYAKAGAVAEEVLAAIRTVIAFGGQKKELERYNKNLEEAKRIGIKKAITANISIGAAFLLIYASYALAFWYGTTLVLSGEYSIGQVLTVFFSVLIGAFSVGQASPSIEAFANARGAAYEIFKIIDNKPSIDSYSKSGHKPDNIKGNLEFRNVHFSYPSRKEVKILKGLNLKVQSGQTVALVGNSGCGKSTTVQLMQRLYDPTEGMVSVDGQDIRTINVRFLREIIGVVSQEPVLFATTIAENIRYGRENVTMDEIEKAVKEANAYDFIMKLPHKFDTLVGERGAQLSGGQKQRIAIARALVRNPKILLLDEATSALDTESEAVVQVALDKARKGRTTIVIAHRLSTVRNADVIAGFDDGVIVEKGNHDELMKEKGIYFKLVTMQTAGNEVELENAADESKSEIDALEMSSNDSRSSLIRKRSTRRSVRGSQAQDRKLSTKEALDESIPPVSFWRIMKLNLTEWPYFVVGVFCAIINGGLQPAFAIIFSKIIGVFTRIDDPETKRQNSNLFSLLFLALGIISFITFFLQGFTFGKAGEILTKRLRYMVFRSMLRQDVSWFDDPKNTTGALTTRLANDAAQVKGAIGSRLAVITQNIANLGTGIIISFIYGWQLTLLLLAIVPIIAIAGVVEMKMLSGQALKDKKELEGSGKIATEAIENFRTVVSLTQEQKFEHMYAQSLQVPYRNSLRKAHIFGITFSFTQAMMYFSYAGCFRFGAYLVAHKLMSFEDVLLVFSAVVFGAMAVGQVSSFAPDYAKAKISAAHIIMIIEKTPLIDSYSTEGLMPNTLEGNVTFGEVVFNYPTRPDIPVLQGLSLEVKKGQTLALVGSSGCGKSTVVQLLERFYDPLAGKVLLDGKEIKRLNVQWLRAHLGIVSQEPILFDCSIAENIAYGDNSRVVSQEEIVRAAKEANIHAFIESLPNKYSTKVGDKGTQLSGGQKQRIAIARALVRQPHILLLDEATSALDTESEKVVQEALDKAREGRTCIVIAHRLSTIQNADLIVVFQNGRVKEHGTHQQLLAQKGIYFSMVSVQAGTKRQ
Chain of P-gp (MDR1-MDCKII cells) (P08183 whole entry): as above
T2 sequence (P34972 whole entry): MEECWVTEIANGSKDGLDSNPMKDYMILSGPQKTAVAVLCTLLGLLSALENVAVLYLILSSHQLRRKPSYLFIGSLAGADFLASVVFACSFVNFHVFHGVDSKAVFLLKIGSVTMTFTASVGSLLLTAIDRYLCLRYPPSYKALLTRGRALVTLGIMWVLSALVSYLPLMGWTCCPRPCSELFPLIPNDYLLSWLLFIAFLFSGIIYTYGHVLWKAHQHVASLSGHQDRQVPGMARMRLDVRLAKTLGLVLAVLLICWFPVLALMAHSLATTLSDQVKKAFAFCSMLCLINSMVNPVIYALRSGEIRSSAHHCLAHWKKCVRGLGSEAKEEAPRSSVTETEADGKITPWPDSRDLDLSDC

Nc1ccc2cc3ccccc3cc2c1 [2-aminoanthracene (2-AA), 2-aminoanthracene, reference compound]
F value (TA98; 2 μg/well): 31.70 | Number of revertants MEAN (TA98; 2 μg/well): 348.67 | solubility (TA100): P0 | F value (TA100; [1]): 8.00 | Number of revertants MEAN (TA100; [1]): 317.33

O=[N+]([O-])c1ccc2c(c1)Cc1ccccc1-2 [2-nitrofluorene (2-NF), 2-nitrofluorene, reference compound]
F value (TA98; 4 μg/well): 14.00 | Number of revertants MEAN (TA98; 4 μg/well): 102.67

CNC(=O)NC1CCCOc2c1nn(-c1ccccc1Cl)c2-c1ccc(Cl)cc1 (stereo not drawn) [BNS813, 1-[2-(2-Chlorophenyl)-3-(4-chlorophenyl)-5,6,7,8-tetrahydrooxepino[3,2-c]pyrazol-8-yl]-3-methyl-urea]
pKi (mouse CB1R): 5.95

CCOC(=O)N1CCC(C(=O)NC2CCCOc3c2nn(-c2ccccc2Cl)c3-c2ccc(Cl)cc2)CC1 (stereo not drawn) [BNS816, Ethyl-4-((2-(2-chlorophenyl)-3-(4-chlorophenyl)-5,6,7,8-tetrahydro-2H-oxepino[3,2-c]pyrazol-8-yl)carbamoyl)piperidine-1-carboxylate]
pKi (mouse CB1R): 8.05 | pKi (human CB2R): 5.82 | Papp A→B at 2.5 h (P-gp (MDR1); MDCK-MDR1): 6.99 ×10⁻⁶ cm/s | Papp B→A at 2.5 h (P-gp (MDR1); MDCK-MDR1): 5.37 ×10⁻⁶ cm/s | efflux ratio at 2.5 h (P-gp (MDR1); MDCK-MDR1): 0.77 | recovery at 2.5 h (P-gp (MDR1); MDCK-MDR1, Mean recovery % A to B, without GF120918): 41.6% | recovery at 2.5 h (P-gp (MDR1); MDCK-MDR1, Mean recovery % B to A, with GF120918): 61.4% | recovery at 2.5 h (P-gp (MDR1); MDCK-MDR1, Mean recovery % B to A, without GF120918): 48.8% | P-gp substrate (P-gp (MDR1-MDCKII cells); MDR1-MDCKII cells): no | Rank Papp (P-gp (MDR1-MDCKII cells); MDR1-MDCKII permeability rank): Hi gh
